Measurements: ChEMBL document CHEMBL1145735, “Synthesis and antitumor activity of novel C-8 ester derivatives of leinamycin” (Bioorg Med Chem Lett, 2003)

Columns and labels:
[1] = test system: Mus musculus; assay: Antitumor activity against human A-2780 tumor cells, at a dose of 18 mg/kg upon i.v. administration in nude mice; type: functional; settings: route intravenous
[2] = test system: Mus musculus; assay: Antitumor activity against human Lu-65 tumor cells, at a dose of 18 mg/kg upon i.v. administration in nude mice; type: functional; settings: route intravenous
[3] = test system: Mus musculus; assay: In vivo antitumor activity against murine sarcoma 180 cells at an optimal dose of 16 mg/kg.; type: functional
[4] = test system: Mus musculus; assay: Antitumor activity against human HCT116 tumor cells, at a dose of 18 mg/kg upon i.v. administration in nude mice; type: functional; settings: route intravenous
[5] = test system: Mus musculus; assay: In vivo antitumor activity against lymphocytic leukemia P388 in mice expressed as maximal increase in life span at an optimal dose of 16 mg/kg.; type: functional
[6] = test system: HeLa; assay: In vitro antiproliferative activity against HeLa S3 cells.; type: functional, cell-based; settings: Homo sapiens
[7] = test system: Mus musculus; assay: Antitumor activity against human Lu-65 tumor cells, at a dose of 8.0 mg/kg upon i.v. administration in nude mice; type: functional; settings: route intravenous
[8] = test system: Mus musculus; assay: Antitumor activity against human HCT116 tumor cells, at a dose of 8.0 mg/kg upon i.v. administration in nude mice; type: functional; settings: route intravenous
[9] = test system: Mus musculus; assay: Antitumor activity against human A-2780 tumor cells, at a dose of 8.0 mg/kg upon i.v. administration in nude mice; type: functional; settings: route intravenous
[10] = test system: Mus musculus; assay: In vivo antitumor activity against murine sarcoma 180 cells at an optimal dose of 4 mg/kg.; type: functional
[11] = test system: Mus musculus; assay: Antitumor activity against human A-2780 tumor cells, at a dose of 5.3 mg/kg upon i.v. administration in nude mice; type: functional; settings: route intravenous
[12] = test system: Mus musculus; assay: Antitumor activity against human Lu-65 tumor cells, at a dose of 5.3 mg/kg upon i.v. administration in nude mice; type: functional; settings: route intravenous
[13] = test system: Mus musculus; assay: In vivo antitumor activity against lymphocytic leukemia P388 in mice expressed as maximal increase in life span at an optimal dose of 8 mg/kg.; type: functional
[14] = test system: Mus musculus; assay: Antitumor activity against human HCT116 tumor cells, at a dose of 5.3 mg/kg upon i.v. administration in nude mice; type: functional; settings: route intravenous
[15] = test system: Mus musculus; assay: In vivo antitumor activity against murine sarcoma 180 cells at an optimal dose of mg/kg.; type: functional
[16] = test system: Mus musculus; assay: In vivo antitumor activity against murine sarcoma 180 cells at an optimal dose of 1 mg/kg.; type: functional
[17] = test system: Mus musculus; assay: In vivo antitumor activity against lymphocytic leukemia P388 in mice expressed as maximal increase in life span at an optimal dose of 4 mg/kg.; type: functional
[18] = test system: Mus musculus; assay: Antitumor activity against human Lu-65 tumor cells, at a dose of 12 mg/kg upon i.v. administration in nude mice; type: functional; settings: route intravenous
[19] = test system: Mus musculus; assay: Antitumor activity against human A-2780 tumor cells, at a dose of 12 mg/kg upon i.v. administration in nude mice; type: functional; settings: route intravenous
[20] = test system: Mus musculus; assay: In vivo antitumor activity against murine sarcoma 180 cells at an optimal dose of 8 mg/kg.; type: functional
[21] = test system: Mus musculus; assay: Antitumor activity against human HCT116 tumor cells, at a dose of 12 mg/kg upon i.v. administration in nude mice; type: functional; settings: route intravenous
[22] = test system: Mus musculus; assay: Antitumor activity against human A-2780 tumor cells, at a dose of 8 mg/kg upon i.v. administration in nude mice; type: functional; settings: route intravenous
[23] = test system: Mus musculus; assay: Antitumor activity against human Lu-65 tumor cells, at a dose of 8 mg/kg upon i.v. administration in nude mice; type: functional; settings: route intravenous
[24] = test system: Mus musculus; assay: Antitumor activity against human HCT116 tumor cells, at a dose of 8 mg/kg upon i.v. administration in nude mice; type: functional; settings: route intravenous
[25] = test system: Mus musculus; assay: In vivo antitumor activity against murine sarcoma 180 cells at an optimal dose of 2 mg/kg.; type: functional
[26] = test system: Mus musculus; assay: In vivo antitumor activity against lymphocytic leukemia P388 in mice expressed as maximal increase in life span at an optimal dose of 1 mg/kg.; type: functional

## C/C1=C\[C@@H](OC(=O)CNC(=O)CCNC(=O)OCc2ccccc2)C(=O)/C=C/C=C/c2csc(n2)[C@@H](C)N2C(=O)C[C@@]([C@@](C)(O)C(=O)SCc3oc(=O)oc3C)(CC1)[S+]2[O-] (stereo not given in full)
[1]
  T/C: 0.46
[2]
  T/C: 0.48
[3]
  T/C: 0.15
[4]
  T/C: 0.64
[5]
  ILS at 16 mg/kg: 91%
[6]
  IC50: 11 nM

## C/C1=C\[C@@H](O[C@H]2CCCCO2)C(=O)/C=C/C=Cc2csc(n2)[C@@H](C)N2C(=O)C[C@@]([C@@](C)(O)C(=O)SCc3oc(=O)oc3C)(CC1)[S+]2[O-] (stereo not given in full)
[7]
  T/C: 0.33
[8]
  T/C: 0.48
[9]
  T/C: 0.43

## C/C1=C\[C@@H](OC(=O)CNC=O)C(=O)/C=C/C=C\c2csc(n2)[C@H](C)NC(=O)C[C@@]2(CC1)[S+]([O-])SC(=O)[C@]2(C)O (stereo not given in full)
[10]
  T/C: 0.46
[11]
  T/C: 0.29
[12]
  T/C: 0.43
[13]
  ILS at 8 mg/kg: 56%
[6]
  IC50: 11 nM
[14]
  T/C: 0.62

## C/C1=C\[C@@H](OC(=O)CNC(=O)OCc2ccccc2)C(=O)/C=C/C=C\c2csc(n2)[C@H](C)NC(=O)C[C@@]2(CC1)[S+]([O-])SC(=O)[C@]2(C)O (stereo not given in full)
[13]
  ILS at 8 mg/kg: 54%
[6]
  IC50: 6.2 nM
[15]
  T/C: 0.89

## COCCOCC(=O)O[C@@H]1/C=C(\C)CC[C@]2(CC(=O)N[C@@H](C)c3nc(cs3)/C=C\C=C\C1=O)[S+]([O-])SC(=O)[C@]2(C)O (stereo not given in full)
[16]
  T/C: 0.72
[6]
  IC50: 26 nM

## C/C1=C\[C@@H](OC(=O)CNC(=O)CNC(=O)OCc2ccccc2)C(=O)/C=C/C=C\c2csc(n2)[C@H](C)NC(=O)C[C@@]2(CC1)[S+]([O-])SC(=O)[C@]2(C)O (stereo not given in full)
[17]
  ILS at 4 mg/kg: 72%
[18]
  T/C: 0.3
[19]
  T/C: 0.63
[20]
  T/C: 0.3
[6]
  IC50: 23 nM
[21]
  T/C: 0.48

## C/C1=C\[C@@H](OC(=O)CNC(=O)CNC(=O)OC(C)(C)C)C(=O)/C=C/C=C\c2csc(n2)[C@H](C)NC(=O)C[C@@]2(CC1)[S+]([O-])SC(=O)[C@]2(C)O (stereo not given in full)
[22]
  T/C: 0.73
[23]
  T/C: 0.43
[24]
  T/C: 0.7
[20]
  T/C: 0.22
[13]
  ILS at 8 mg/kg: 46%
[6]
  IC50: 20 nM

## C/C1=C\[C@@H](O)C(=O)/C=C/C=C\c2csc(n2)[C@H](C)NC(=O)C[C@@]2(CC1)[S+]([O-])SC(=O)[C@]2(C)O (stereo not given in full)
[25]
  T/C: 0.44
[6]
  IC50: 28 nM
[26]
  ILS at 1 mg/kg: 64%
